Assay results: US8399462B2, “JNK modulators” (Roche Palo Alto LLC, priority 2006, dated 2013)
“And” between values parts separate entries of the source, which are not always exact repeats. Equal entries are not always repeated.

Row | Structure (SMILES) | melting point
1 | CC(C)(O)c1cccc2c1ccn2-c1ccnc(N[C@H]2CC[C@H](N(CCO)S(C)(=O)=O)CC2)n1 [Compound 240, N-(2-hydroxyethyl)-N-(4-{4-[4-(2-hydroxy-prop-2-yl)-indol-1-yl]-pyrimidin-2-ylamino}-cyclohexyl)-methane-sulfonamide] | 214 to 215 °C
2 | Oc1cccc2c1cnn2-c1ccnc(N[C@H]2CC[C@H](O)CC2)n1 [Compound 242, 1-[2-(4-hydroxy-cyclohexylamino)-pyrimidin-4-yl]-1H-indazol-4-ol] | > 300 °C
3 | CS(=O)(=O)N[C@H]1CC[C@H](Nc2nccc(-n3cc(C#N)c4ccccc43)n2)CC1 [Compound 247, N-{4-[4-(3-cyano-indol-1-yl)-pyrimidin-2-ylamino]-cyclohexyl}-methanesulfonamide] | > 300 °C
4 | CN([C@H]1CC[C@H](Nc2nccc(-n3cc(C#N)c4ccccc43)n2)CC1)S(C)(=O)=O [Compound 248, N-{4-[4-(3-cyano-indol-1-yl)-pyrimidin-2-ylamino]-cyclohexyl}-N-methyl-methane-sulfonamide] | 289 to 290 °C
5 | CS(=O)(=O)CCCOc1cccc2c1ccn2-c1ccnc(N[C@H]2CC[C@H](C(N)=O)CC2)n1 [Compound 250, 4-{4-[4-(3-methane-sulfonyl-propoxy)-indol-1-yl]-pyrimidin-2-ylamino}-cyclohexane-carboxylic acid amide] | 249 to 250 °C
6 | CN(C)C(=O)[C@H]1CC[C@H](Nc2nccc(-n3ccc4c(OCCCS(C)(=O)=O)cccc43)n2)CC1 [Compound 251, 4-{4-[4-(3-methane-sulfonyl-propoxy)-indol-1-yl]-pyrimidin-2-ylamino}-cyclohexane-carboxylic acid dimethylamide] | 169 to 170 °C
7 | CS(=O)(=O)CCCOc1cccc2c1cnn2-c1ccnc(N[C@H]2CC[C@H](C(=O)c3ccccc3)CC2)n1 [Compound 255, (4-{4-[4-(3-methane-sulfonyl-propoxy)-indazol-1-yl]-pyrimidin-2-ylamino}-cyclohexyl)-phenyl-methanone] | 174.5 to 175.5 °C
8 | CS(=O)(=O)CCCOc1cccc2c1cnn2-c1ccnc(N[C@H]2CC[C@H](C(=O)c3ccccn3)CC2)n1 [Compound 256, (4-{4-[4-(3-methane-sulfonyl-propoxy)-indazol-1-yl]-pyrimidin-2-ylamino}-cyclohexyl)-pyrid-2-yl-methanone] | 200 to 201 °C
9 | COC(=O)c1cccc2c1ccn2-c1ccnc(N[C@H]2CC[C@H](NS(=O)(=O)C3CC3)CC2)n1 [Compound 257, 1-[2-(4-cyclopropane-sulfonylamino-cyclo-hexylamino)-pyrimidin-4-yl]-1H-indole-4-carboxylic acid methyl ester] | 250 to 251 °C
10 | CC(C)(O)c1cccc2c1ccn2-c1ccnc(N[C@H]2CC[C@H](NS(=O)(=O)N3CCCC3)CC2)n1 [Compound 258, Pyrrolidine-1-sulfonic acid (4-{4-[4-(2-hydroxyprop-2-yl)-indol-1-yl]-pyrimidin-2-ylamino}-cyclohexyl)-amide] | 178 to 179 °C
11 | CC(C)(O)c1cccc2c1ccn2-c1ccnc(N[C@H]2CC[C@H](NS(=O)(=O)N3CCOCC3)CC2)n1 [Compound 259, Morpholine-4-sulfonic acid (4-{4-[4-(2-hydroxyprop-2-yl)-indol-1-yl]-pyrimidin-2-ylamino}-cyclohexyl)-amide] | > 300 °C
12 | CCOC(=O)[C@H]1CC[C@H](Nc2nccc(-n3ncc4c(OCCCS(N)(=O)=O)cccc43)n2)CC1 [Compound 260, 4-{4-[4-(3-sulfamoyl-propoxy)-indazol-1-yl]-pyrimidin-2-ylamino}-cyclohexanecarboxylic acid ethyl ester] | 166 to 167 °C
13 | CC(=O)N1CCN(c2cccc3c2ccn3-c2ccnc(N[C@H]3CC[C@H](NS(C)(=O)=O)CC3)n2)CC1 [Compound 267, N-(4-{4-[4-(4-acetyl-piperazin-1-yl)-indol-1-yl]-pyrimidin-2-yl-amino}-cyclohexyl)-methanesulfonamide] | 268 to 269 °C
14 | NS(=O)(=O)CCCOc1cccc2c1cnn2-c1ccnc(N[C@H]2CC[C@H](C(=O)N3CCCC3)CC2)n1 [Compound 276] | 249 to 250 °C
15 | CC(C)(O)[C@H]1CC[C@H](Nc2nccc(-n3cc(C(N)=O)c4ccccc43)n2)CC1 [Compound 277, 1-{2-[4-(2-hydroxy-prop-2-yl)-cyclohexyl-amino]-pyrimidin-4-yl}-1H-indole-3-carboxylic acid amide] | 222 to 223 °C
16 | CS(=O)(=O)CCCOc1cccc2c1ccn2-c1ccnc(NC2CCC(F)(F)CC2)n1 [Compound 278, (4,4-difluorocyclo-hexyl)-{4-[4-(3-methane-sulfonyl-propoxy)-indol-1-yl]-pyrimidin-2-yl}-amine] | 200 to 201 °C
17 | CS(=O)(=O)CCCOc1cccc2c1ccn2-c1ccnc(N[C@H]2CC[C@H](NS(=O)(=O)CCCN3CCOCC3)CC2)n1 [Compound 280, 3-morpholin-4-yl-pro-pane-1-sulfonic acid (4-{4-[4-(3-methane-sulfonyl-propoxy)-indol-1-yl]-pyrimidin-2-yl-amino}-cyclohexyl)-amide] | 174 to 179.3 °C
18 | COC(=O)CCCOc1cccc2c1ccn2-c1ccnc(N[C@H]2CC[C@H](N(C)S(C)(=O)=O)CC2)n1 [Compound 284, 4-(1-{2-[4-(methane-sulfonyl-methylamino)-cyclohexylamino]-pyrimidin-4-yl}-1H-indol-4-yloxy)-butyric acid methyl ester] | 145 to 146 °C
19 | CS(=O)(=O)CCCOc1cccc2c1ccn2-c1ccnc(N[C@H]2CC[C@H](CCl)CC2)n1 [Compound 285, (4-chloromethyl-cyclo-hexyl)-{4-[4-(3-methane-sulfonyl-propoxy)-indol-1-yl]-pyrimidin-2-yl}-amine] | 152 to 155 °C
20 | CN(C)C1CCN(C(=O)[C@H]2CC[C@H](Nc3nccc(-n4ccc5c(OCCCC(F)(F)F)cccc54)n3)CC2)CC1 [Compound 286, (4-dimethylamino-piperidin-1-yl)-(4-{4-[4-(4,4,4-trifluorobutoxy)-indol-1-yl]-pyrimidin-2-ylamino}-cyclohexyl)-methanone] | 179 to 180 °C

More lines, now with the values ahead:

Row | melting point | Structure (SMILES)
21 | 237 to 238 °C | NS(=O)(=O)CCCOc1cccc2c1cnn2-c1ccnc(N[C@H]2CC[C@H](C(=O)N3CCC(O)CC3)CC2)n1 [Compound 243, 3-(1-{2-[4-(4-hydroxy-piperidine-1-carbonyl)-cyclohexylamino]-pyrimidin-4-yl}-1H-indazol-4yloxy)-propane-1-sulfonic acid amide]
22 | 259 to 260 °C | N#Cc1cn(-c2ccnc(N[C@H]3CC[C@H](C(=O)N4CCC(O)CC4)CC3)n2)c2ccccc12 [Compound 249, 1-{2-[4-(4-hydroxy-piperidine-1-carbonyl)-cyclohexylamino]-pyrimidin-4-yl}-1H-indol-3-carbonitrile]
23 | 121 to 122 °C | COC1CCCN(C(=O)[C@H]2CC[C@H](Nc3nccc(-n4ccc5c(OCCCS(C)(=O)=O)cccc54)n3)CC2)C1 (some centres unmarked) [Compound 263, (4-{4-[4-(3-methane-sulfonyl-propoxy)-indol-1-yl]-pyrimidin-2-ylamino}-cyclohexyl)-(3-methoxy-piperidin-1-yl)-methanone]
24 | 132 to 133 °C | CS(=O)(=O)CCCOc1cccc2c1ccn2-c1ccnc(N[C@H]2CC[C@H](C(=O)N3CCCC(C#N)C3)CC2)n1 (some centres unmarked) [Compound 264, 1-(4-{4-[4-(3-methane-sulfonyl-propoxy)-indol-1-yl]-pyrimidin-2-ylamino}-cyclohexane-carbonyl)-piperidine-3-carbonitrile]
25 | 150.5 to 156.5 °C | CS(=O)(=O)CCCOc1cccc2c1ccn2-c1ccnc(N[C@H]2CC[C@H](C(=O)N3CCC(C#N)CC3)CC2)n1 [Compound 265, 1-(4-{4-[4-(3-methane-sulfonyl-propoxy)-indol-1-yl]-pyrimidin-2-ylamino}-cyclohexane-carbonyl)-piperidine-4-carbonitrile]
26 | 162 to 163 °C | COC1CN(C(=O)[C@H]2CC[C@H](Nc3nccc(-n4ccc5c(OCCCS(C)(=O)=O)cccc54)n3)CC2)C1 [Compound 274, (4-{4-[4-(3-methane-sulfonyl-propoxy)-indol-1-yl]-pyrimidin-2-ylamino}-cyclohexyl)-(3-methoxy-azetidin-1-yl)-methanone]
27 | 182.4 to 183 °C and 178.9 to 180.6 °C | CN(C)C1CCN(C(=O)[C@H]2CC[C@H](Nc3nccc(-n4ccc5c(OCCCS(C)(=O)=O)cccc54)n3)CC2)CC1 [Compound 275, (4-dimethylamino-piperidin-1-yl)-(4-{4-[4-(3-methanesulfonyl-propoxy)-indol-1-yl]-pyrimidin-2-ylamino}-cyclohexyl)-methanone]
28 | 140.7 to 143.3 °C | O=C([C@H]1CC[C@H](Nc2nccc(-n3ccc4c(OCC(F)(F)F)cccc43)n2)CC1)N1CCC(O)CC1 [Compound 279, (4-hydroxy-piperidin-1-yl)-(4-{4-[4-(2,2,2-trifluoroethoxy)-indol-1-yl]-pyrimidin-2-yl-amino}-cyclohexyl)-methanone]
29 | 174 to 176.9 °C | CC(C)(O)COc1cccc2c1ccn2-c1ccnc(N[C@H]2CC[C@H](C(=O)N3CCC(O)CC3)CC2)n1 [Compound 281, (4-{4-[4-(2-hydroxy-2-methyl-propoxy)-indol-1-yl]-pyrimidin-2-yl-amino}-cyclohexyl)-(4-hydroxy-piperidin-1-yl)-methanone]
30 | 278 to 280 °C | COc1cccc2c1c(C(N)=O)cn2-c1ccnc(N[C@H]2CC[C@H](C(=O)N3CCC(O)CC3)CC2)n1 [Compound 282, 1-{2-[4-(4-hydroxy-piperidine-1-carbonyl)-cyclohexylamino]-pyrimidin-4-yl}-4-methoxy-1H-indole-3-carboxylic acid amide]
31 | 285 to 287 °C | COc1cccc2c1c(C(N)=O)cn2-c1ccnc(N[C@H]2CC[C@H](N(C)S(C)(=O)=O)CC2)n1 [Compound 283, 1-{2-[4-(methane-sulfonyl-methylamino)-cyclohexylamino]-pyrimidin-4-yl}-4-methoxy-1H-indole-3-carboxylic acid amide]
32 | 215 to 215.5 °C | O=C([C@H]1CC[C@H](Nc2nccc(-n3ccc4c(OCC(O)CC(F)(F)F)cccc43)n2)CC1)N1CCC(O)CC1 (some centres unmarked) [Compound 288]
